In patent publication US8829190B2, “Triazolopyridines as phosphodiesterase inhibitors for treatment of dermal diseases” (Leo Pharma A/S, priority 2007, dated 2014):

What was measured:
Human recombinant PDE4 = Human recombinant PDE4 (Homo sapiens (Human), UniProt Q08499); assay: PDE4 assay (SPA, cAMP cleavage); assay type: biochemical; conditions: human recombinant PDE4, 1 hour incubation, cAMP 1×10^-5M
Protocol: At the end of the incubation, the cleavage of the substrate was evaluated by the binding of the AMP product to SPA beads, which generate chemo luminescence when bound to the radioactive tracer. The AMP product inhibited the binding of the radioactive tracer to the beads, and the luminescent signal was competed.

[1] = tested on: Human peripheral blood mononuclear cells (PBMC); assay: TNFα release in LPS-stimulated PBMC; assay type: cell-based; conditions: 30 minutes pre-incubation, lipopolysaccharide stimulation 18 hours, read-out: TNFa IC50
Protocol: Human peripheral blood mononuclear cells (PBMC) were isolated from buffy coats. […] The PBMC were suspended in RPMI1640 with 2% foetal calf serum (FCS), pen/strep and 2 mM L-glutamine at a concentration of 5×105 c/ml. The cells were pre-incubated for 30 minutes with the test compounds in 96 well tissue culture plates and stimulated for 18 hours with lipopolysaccharide […] (Sigma). The level of TNFα was measured in the culture supernatant by enzyme immuno assays using primary and secondary biotinylated antibodies from R&D systems.

Sequence of Human recombinant PDE4 (Q08499 other isoform, or with tags, fused parts or gaps): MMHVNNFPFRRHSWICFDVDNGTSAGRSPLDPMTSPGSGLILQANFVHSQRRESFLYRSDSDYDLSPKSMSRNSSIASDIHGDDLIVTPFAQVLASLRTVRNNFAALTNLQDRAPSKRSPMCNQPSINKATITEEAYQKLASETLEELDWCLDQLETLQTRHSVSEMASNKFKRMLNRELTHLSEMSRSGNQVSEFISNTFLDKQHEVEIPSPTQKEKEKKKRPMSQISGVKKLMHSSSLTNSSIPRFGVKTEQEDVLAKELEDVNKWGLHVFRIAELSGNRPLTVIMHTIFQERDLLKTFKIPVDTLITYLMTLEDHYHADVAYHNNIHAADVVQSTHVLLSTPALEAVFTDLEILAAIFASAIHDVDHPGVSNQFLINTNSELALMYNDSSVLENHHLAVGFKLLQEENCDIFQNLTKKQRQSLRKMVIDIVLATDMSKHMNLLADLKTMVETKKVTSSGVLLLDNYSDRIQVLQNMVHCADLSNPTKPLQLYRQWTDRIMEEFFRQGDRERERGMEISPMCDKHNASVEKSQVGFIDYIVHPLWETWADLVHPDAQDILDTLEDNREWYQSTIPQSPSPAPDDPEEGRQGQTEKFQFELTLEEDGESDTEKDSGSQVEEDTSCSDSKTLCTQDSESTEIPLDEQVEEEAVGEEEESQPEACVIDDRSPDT

Compound | IC50 (Human recombinant PDE4) [nM] | IC50 [1] [nM]
COc1ccc(C(=O)Cc2c(Cl)cncc2Cl)n2nc(C3(C(N)=O)CC3)nc12 [Compound 118, 1-{5-[2-(3,5-Dichloro-pyridin-4-yl)-acetyl]-8-methoxy-[1,2,4]triazolo[1,5-a]pyridin-2-yl}-cyclopropanecarboxylic acid amide] | 3 | 2
COc1ccc(C(=O)Cc2c(Cl)cncc2Cl)n2nc(C3(C(=O)NCc4ccccn4)CC3)nc12 [Compound 112, 1-{5-[2-(3,5-Dichloro-pyridin-4-yl)-acetyl]-8-methoxy-[1,2,4]triazolo[1,5-a]pyridin-2-yl}-cyclopropanecarboxylic acid (pyridin-2-ylmethyl)-amide] | 1 | 0.6
COc1ccc(C(=O)Cc2c(Cl)cncc2Cl)n2nc(C3CC3)nc12 [Compound 101, 1-(2-cyclopropyl-8-methoxy-[1,2,4]triazolo[1,5-a]pyridin-5-yl)-2-(3,5-dichloro-pyridin-4-yl)-ethanone] | 2 | 3
COc1ccc(C(=O)Cc2cnccn2)n2nc(C3(CO)CC3)nc12 [Compound 120, 1-[2-(1-Hydroxymethyl-cyclopropyl)-8-methoxy-[1,2,4]triazolo[1,5-a]pyridin-5-yl]-2-pyrazin-2-yl-ethanone] | 2500 | 2200
COc1ccc(C(=O)Cc2c(Cl)cncc2Cl)n2nc(COCc3ccccc3)nc12 [Compound 104, 1-(2-Benzyloxymethyl-8-methoxy-[1,2,4]triazolo[1,5-a]pyridin-5-yl)-2-(3,5-dichloro-pyridin-4-yl)-ethanone] | 26 | 66
COc1ccc(C(=O)Cc2c(Cl)cncc2Cl)n2nc(CO)nc12 [Compound 105, 2-(3,5-Dichloro-pyridin-4-yl)-1-(2-hydroxymethyl-8-methoxy-[1,2,4]triazolo[1,5-a]pyridin-5-yl)-ethanone] | 305 | 603
COc1ccc(C(=O)Cc2c(Cl)cncc2Cl)n2ncnc12 [Compound 102, 2-(3,5-Dichloro-pyridin-4-yl)-1-(8-methoxy-[1,2,4]triazolo[1,5-a]pyridin-5-yl)-ethanone] | 134 | 291
COc1ccc(C(=O)Cc2c(Cl)cncc2Cl)n2nc(C3(C(=O)N4CCOCC4)CC3)nc12 [Compound 109, 2-(3,5-Dichloro-pyridin-4-yl)-1-{8-methoxy-2-[1-(morpholine-4-carbonyl)-cyclopropyl]-[1,2,4]triazolo[1,5-a]pyridin-5-yl}-ethanone] | 24 | 29
COc1ccc(C(=O)Cc2c(Cl)cncc2Cl)n2nc(C3(C(=O)NC4CCCC4)CC3)nc12 [Compound 116, 1-{5-[2-(3,5-Dichloro-pyridin-4-yl)-acetyl]-8-methoxy-[1,2,4]triazolo[1,5-a]pyridin-2-yl}-cyclopropanecarboxylic acid cyclopentylamide] | 0.1 | –
COc1ccc(C(=O)Cc2c(Cl)cncc2Cl)n2nc(C3(CO)CC3)nc12 [Compound 106, 2-(3,5-Dichloro-pyridin-4-yl)-1-[2-(1-hydroxymethyl-cyclopropyl)-8-methoxy-[1,2,4]triazolo[1,5-a]pyridin-5-yl]-ethanone] | 4 | 5
COc1ccc(C(=O)Cc2c(Cl)cncc2Cl)n2nc(C3(C(=O)O)CC3)nc12 [Compound 108, 1-{5-[2-(3,5-Dichloro-pyridin-4-yl)-acetyl]-8-methoxy-[1,2,4]triazolo[1,5-a]pyridin-2-yl}-cyclopropanecarboxylic acid] | 55 | –
COc1ccc(C(=O)Cc2c(Br)cncc2Br)n2nc(C3(CO)CC3)nc12 [Compound 123, 2-(3,5-Dibromo-pyridin-4-yl)-1-[2-(1-hydroxymethyl-cyclopropyl)-8-methoxy-[1,2,4]triazolo[1,5-a]pyridin-5-yl]-ethanone] | 68 | 15
COc1ccc(C(=O)Cc2c(Cl)cncc2Cl)n2nc(C3(C(=O)NCC(C)(C)C)CC3)nc12 [Compound 115, 1-{5-[2-(3,5-Dichloro-pyridin-4-yl)-acetyl]-8-methoxy-[1,2,4]triazolo[1,5-a]pyridin-2-yl}-cyclopropanecarboxylic acid (2,2-dimethyl-propyl)-amide] | 0.2 | –
COc1ccc(C(=O)Cc2c(Cl)cncc2Cl)n2nc(C3(CNCc4ccccc4)CC3)nc12 [Compound 119, 1-{2-[1-(Benzylamino-methyl)-cyclopropyl]-8-methoxy-[1,2,4]triazolo[1,5-a]pyridin-5-yl}-2-(3,5-dichloro-pyridin-4-yl)-ethanone] | 8 | 13
COc1ccc(C(=O)Cc2ccnc(C#N)c2)n2nc(C3(CO)CC3)nc12 [Compound 125, 4-{2-[2-(1-Hydroxymethyl-cyclopropyl)-8-methoxy-[1,2,4]triazolo[1,5-a]pyridin-5-yl]-2-oxo-ethyl}-pyridine-2-carbonitrile] | 3100 | 4800
COc1ccc(C(=O)Cc2ccccc2Cl)n2nc(C3CC3)nc12 [Compound 127, 2-(2-Chloro-phenyl)-1-(2-cyclopropyl-8-methoxy-[1,2,4]triazolo[1,5-a]pyridin-5-yl)-ethanone] | – | 105
COc1ccc(C(=O)Cc2ccnc3ccccc23)n2nc(C3(CO)CC3)nc12 [Compound 121, 1-[2-(1-Hydroxymethyl-cyclopropyl)-8-methoxy-[1,2,4]triazolo[1,5-a]pyridin-5-yl]-2-quinolin-4-yl-ethanone] | 3600 | 2100
COc1ccc(C(=O)Cc2c(Cl)cncc2Cl)n2nc(C)nc12 [Compound 107, 2-(3,5-Dichloro-pyridin-4-yl)-1-(8-methoxy-2-methyl-[1,2,4]triazolo[1,5-a]pyridin-5-yl)-ethanone] | 45 | 117
COc1ccc(C(=O)Cc2nccnc2Cl)n2nc(C3(CO)CC3)nc12 [Compound 126, 2-(3-Chloro-pyrazin-2-yl)-1-[2-(1-hydroxymethyl-cyclopropyl)-8-methoxy-[1,2,4]triazolo[1,5-a]pyridin-5-yl]-ethanone] | 548 | 712
COc1ccc(C(=O)Cc2c(Cl)cncc2Cl)n2nc(C3(C(=O)NCc4ccncc4)CC3)nc12 [Compound 114, 1-{5-[2-(3,5-Dichloro-pyridin-4-yl)-acetyl]-8-methoxy-[1,2,4]triazolo[1,5-a]pyridin-2-yl}-cyclopropanecarboxylic acid (pyridin-4-ylmethyl)-amide] | 0.4 | 0.2
COc1ccc(C(=O)Cc2c(Cl)cncc2Cl)n2nc(-c3ccco3)nc12 [Compound 103, 2-(3,5-Dichloro-pyridin-4-yl)-1-(2-furan-2-yl-8-methoxy-[1,2,4]triazolo[1,5-a]pyridin-5-yl)-ethanone] | 7 | 27
COc1ccc(C(=O)Cc2ccncc2Br)n2nc(C3(CO)CC3)nc12 [Compound 124, 2-(3-Bromo-pyridin-4-yl)-1-[2-(1-hydroxymethyl-cyclopropyl)-8-methoxy-[1,2,4]triazolo[1,5-a]pyridin-5-yl]-ethanone] | 52 | 115
COc1ccc(C(=O)Cc2c(Cl)c[n+]([O-])cc2Cl)n2nc(C3CC3)nc12 [Compound 128, 1-(2-Cyclopropyl-8-methoxy-[1,2,4]triazolo[1,5-a]pyridin-5-yl)-2-(3,5-dichloro-1-oxy-pyridin-4-yl)-ethanone] | – | 5
COc1ccc(C(=O)Cc2c(Cl)cncc2Cl)n2nc(C3(C(=O)NCc4cccnc4)CC3)nc12 [Compound 113, 1-{5-[2-(3,5-Dichloro-pyridin-4-yl)-acetyl]-8-methoxy-[1,2,4]triazolo[1,5-a]pyridin-2-yl}-cyclopropanecarboxylic acid (pyridin-3-ylmethyl)-amide] | 0.7 | 0.5
COc1ccc(C(=O)Cc2c(Cl)cncc2Cl)n2nc(C3(C(=O)NCc4ccccc4)CC3)nc12 [Compound 110, 1-{5-[2-(3,5-Dichloro-pyridin-4-yl)-acetyl]-8-methoxy-[1,2,4]triazolo[1,5-a]pyridin-2-yl}-cyclopropanecarboxylic acid benzylamide] | 0.5 | 0.7
COc1ccc(C(=O)Cc2ccncc2)n2nc(C3(CO)CC3)nc12 [Compound 122, 1-[2-(1-Hydroxymethyl-cyclopropyl)-8-methoxy-[1,2,4]triazolo[1,5-a]pyridin-5-yl]-2-pyridin-4-yl-ethanone] | 261 | 139
